For this test, the system named is mast cells. As to the kind of experiment: Inhibitory effect on histamine release from rat peritoneal mast cells stimulated with compound 48/80 (histamine by HPLC, diazotation method). In kind it is cell-based. The note with it: histamine release induced by compound 48/80, mean of three measurements; for inhibition at 10 µg/mL: sample concentration 10 μg/ml. The source says:
(1) With regard to the following substances, an inhibitory effect on type I allergic reaction was investigated by investigating an inhibitory effect on histamine release from mast cells. • <1> Adenosine • <2> Guanosine • <3> Cytidine • <4> Uridine • <5> Adenosine monophosphate (AMP) • <6> Adenosine diphosphate (ADP) • <7> Adenosine triphosphate (ATP) • <8> Adenosine derived from Phellinus linteus (described later as Compound A) • <9> N-hydroxy-N-methyl-adenosine derived from Phellinus linteus (described later as Compound B) • <10> A commercially available histamine inhibitor (brand name: Intal, major component: disodium cromoglycate, manufacturer: Fujisawa Pharmaceutical Co., Ltd.)
(a) For a test animal, a male Wister rat (at 6 to 8 weeks of age) was used.
After a rat was sacrificed by exsanguination under anesthesia with ether, 15 ml of Tyrode Buffer was injected into the peritoneal cavity of the rat and intraperitoneal cavity fluid was recovered. Ten ml of Tyrode Buffer was further injected into the peritoneal cavity of the rat. Intraperitoneal cavity fluid was further recovered and combined with the intraperitoneal fluid recovered before. This intraperitoneal fluid was centrifuged at 800 rpm for 10 minutes at 4° C. and the supernatant was removed and filtrated.
Further, cell suspension, to which Tyrode Buffer was added, was centrifuged at 800 rpm for 10 minutes at 4° C., the supernatant was removed and the cells were homogenized. This cell suspension was measured with an erythrocytometer, and prepared to be 8×10^6 cells/ml for use.
The cell suspension (370 μl) dispensed into a 1.2 ml-microtube was pre-incubated in a water bath at 37° C.
Ten minutes later, 20 μl of sample prepared at each concentration was added.
Further, 10 minutes later, 10 μl of compound 48/80 (a mast cell stimulation agent; manufactured by Wako Pure Chemical Industries, Ltd.) (0.5 μg/ml), which is an allergy inducer, was added.
Fifteen minutes later, the reaction was terminated on ice.
Further, to remove the mast cells, centrifugation was carried out at 13,000 rpm for 15 minutes at 4° C. and the supernatant was recovered.
This supernatant was used as a sample for diazotation in HPLC analysis.
An equal amount of 20 mM p-nitroaniline hydrochloric acid solution and 200 mM sodium nitrite aqueous solution were mixed well (diazo reagent).
To 10 μl of the diazo reagent, 20 μl of the foregoing sample for (histamine) diazotation was added and mixed well by using a vortex mixer.
Further, 30 μl of sodium carbonate ethanol solution was added and mixed well by using a vortex mixer.
This solution (20 μl) was used in HPLC analysis.
(c) The analysis of histamine was carried out by the diazotation method (Specific Determination of Histamine in Fish by High-performance Liquid Chromatography after Diazo Coupling: Biosci. Biotech. Biochem. 59 (7) 1208-1210 (1995)).
(4) The results of the inhibitory effects on histamine release from mast cells of a specified concentration of <1> adenosine, <2> guanosine, <3> cytidine, <4> uridine, <5> adenosine monophosphate (AMP), <6> adenosine diphosphate (ADP), <7> adenosine triphosphate (ATP) (<1> to <7> substances were from Wako Pure Chemical Industries, Ltd.), <8> adenosine derived from Phellinus linteus (described later as Compound A), <9> N-hydroxy-N-methyl-adenosine derived from Phellinus linteus (described later as Compound B), and <10> a commercially available histamine inhibitor (brand name: Intal, major component: sodium cromoglycate, manufacturer: Fujisawa Pharmaceutical Co., Ltd.) are shown in Table 2. The inhibition ratios shown in Table 2 are mean values of three measurement values in each case.
The value of inhibition ratio was calculated from the following calculation formula.
Calculation Formula: (1−(peak integral value of sample)/(peak integral value of control))×100

Setting [1] is: Rattus norvegicus, Mast cell, sample concentration 5 μg/ml, read-out: Inhibition Ratio (%).
Setting [2] is: Rattus norvegicus, Mast cell, read-out: Inhibition Ratio (%).

The results in this text go back to US20050192244A1, “Histamine release inhibitor” (priority 2002, published 2005).

Take `Nc1ncnc2c1ncn2[C@@H]1O[C@H](CO)[C@@H](O)[C@H]1O` [Adenosine derived from Phellinus linteus, adenosine]: the inhibition at 5 µg/mL under setting [1] came to 41.5%.

Regarding `Nc1ncnc2c1ncn2[C@@H]1O[C@H](COP(=O)(O)OP(=O)(O)O)[C@@H](O)[C@H]1O` [Adenosine diphosphate, adenosine 5′-diphosphate], the inhibition at 10 µg/mL under setting [2] was 47.8%.

On to `Nc1ncnc2c1ncn2[C@@H]1O[C@H](COP(=O)(O)O)[C@@H](O)[C@H]1O` [Adenosine monophosphate, adenosine 5′-monophosphate], for which the inhibition at 10 µg/mL under setting [2] worked out at 54.9%.

Consider `Nc1ncnc2c1ncn2[C@@H]1O[C@H](COP(=O)(O)OP(=O)(O)OP(=O)(O)O)[C@@H](O)[C@H]1O` [Adenosine triphosphate, adenosine 5′-triphosphate], for which the inhibition at 10 µg/mL under setting [2] came out at 40%.

Turning to `Nc1ncnc2c1ncn2[C@@H]1O[C@H](CO)[C@@H](O)[C@H]1O` [Adenosine], the inhibition at 1 µg/mL (Rattus norvegicus, Mast cell, sample concentration 1 μg/ml, read-out: Inhibition Ratio (%)) turned out to be 27.5%. For the same molecule, the inhibition at 20 µg/mL (Rattus norvegicus, Mast cell, sample concentration 20 μg/ml, read-out: Inhibition Ratio (%)) was 59.3%. In addition, the inhibition at 50 µg/mL (Rattus norvegicus, Mast cell, sample concentration 50 μg/ml, read-out: Inhibition Ratio (%)) is 74.7%. For the same molecule, the “Inhibition Ratio (%)” value (sample concentration 5 μg/ml) stood at 43.8%.

In the case of `Nc1ccn([C@@H]2O[C@H](CO)[C@@H](O)[C@H]2O)c(=O)n1` [Cytidine], the inhibition at 5 µg/mL under setting [1] was 38%.

With `Nc1nc2c(ncn2[C@@H]2O[C@H](CO)[C@@H](O)[C@H]2O)c(=O)[nH]1` [Guanosine], under setting [1], the inhibition at 5 µg/mL came out at 39%.

Turning to `CN(O)c1ncnc2c1ncn2[C@@H]1O[C@H](CO)[C@@H](O)[C@H]1O` [N-hydroxy-N-methyl-adenosine], under setting [1], the inhibition at 5 µg/mL came out at 27%.

In the case of `O=c1ccn([C@@H]2O[C@H](CO)[C@@H](O)[C@H]2O)c(=O)[nH]1` [Uridine], under setting [1], the inhibition at 5 µg/mL amounted to 34%.
